Results published in patent publication US20140120232A1, “ACID TASTE/ACID SMELL-REDUCING AGENT” (T. HASEGAWA CO., LTD., priority 2011, published 2014).

Assay: Sensory evaluation of Vermont drink containing the agent
Conditions: ten panels
Outline: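 Tridecadienal or tridecatrienal isomers added at various concentrations to a Vermont-flavoured drink (apple-cider vinegar, honey, liquid sugar, citric acid, trisodium citrate, 100 mL total). Ten panelists assessed acid taste/acid smell and aldehyde-type off-odour, and the concentration giving the best acid taste/smell quality was selected.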

CCCCC/C=C\C/C=C/CCC=O [(E,Z)-4,7-tridecadienal]
3: B: number of panels, acid taste/acid smell slightly strong and slightly cause irritation (0.5 ppt) | C: number of panels, acid taste/acid smell slightly unpleasant (5 ppt) | Flavor judgment: number of panels who judged acid taste/acid smell quality the highest (20 ppt) | Flavor judgment: number of panels who judged acid taste/acid smell quality the highest (100 ppt) | C: number of panels, acid taste/acid smell slightly unpleasant (500 ppt)
0: B: number of panels, acid taste/acid smell slightly strong and slightly cause irritation (0.005 ppt) | C: number of panels, acid taste/acid smell slightly unpleasant (0.005 ppt) | Flavor judgment: number of panels who judged acid taste/acid smell quality the highest (0.005 ppt) | N: number of panels, irritation of acid reduced to give a mild acid taste (0.005 ppt) | X: number of panels, acid taste reduced but piercing odor characteristic to aldehydes unpleasant (0.005 ppt) | B: number of panels, acid taste/acid smell slightly strong and slightly cause irritation (0.02 ppt) | C: number of panels, acid taste/acid smell slightly unpleasant (0.02 ppt) | Flavor judgment: number of panels who judged acid taste/acid smell quality the highest (0.02 ppt) | N: number of panels, irritation of acid reduced to give a mild acid taste (0.02 ppt) | X: number of panels, acid taste reduced but piercing odor characteristic to aldehydes unpleasant (0.02 ppt) | B: number of panels, acid taste/acid smell slightly strong and slightly cause irritation (0.1 ppt) | C: number of panels, acid taste/acid smell slightly unpleasant (0.1 ppt) | Flavor judgment: number of panels who judged acid taste/acid smell quality the highest (0.1 ppt) | N: number of panels, irritation of acid reduced to give a mild acid taste (0.1 ppt) | X: number of panels, acid taste reduced but piercing odor characteristic to aldehydes unpleasant (0.1 ppt) | C: number of panels, acid taste/acid smell slightly unpleasant (0.2 ppt) | Flavor judgment: number of panels who judged acid taste/acid smell quality the highest (0.2 ppt) | N: number of panels, irritation of acid reduced to give a mild acid taste (0.2 ppt) | X: number of panels, acid taste reduced but piercing odor characteristic to aldehydes unpleasant (0.2 ppt) | Flavor judgment: number of panels who judged acid taste/acid smell quality the highest (0.5 ppt) | N: number of panels, irritation of acid reduced to give a mild acid taste (0.5 ppt) | X: number of panels, acid taste reduced but piercing odor characteristic to aldehydes unpleasant (0.5 ppt) | A: number of panels, acid taste/acid smell extreme and cause irritation (1 ppb) | B: number of panels, acid taste/acid smell slightly strong and slightly cause irritation (1 ppb) | Flavor judgment: number of panels who judged acid taste/acid smell quality the highest (1 ppb) | A: number of panels, acid taste/acid smell extreme and cause irritation (1 ppt) | Flavor judgment: number of panels who judged acid taste/acid smell quality the highest (1 ppt) | X: number of panels, acid taste reduced but piercing odor characteristic to aldehydes unpleasant (1 ppt) | A: number of panels, acid taste/acid smell extreme and cause irritation (5 ppt) | X: number of panels, acid taste reduced but piercing odor characteristic to aldehydes unpleasant (5 ppt) | A: number of panels, acid taste/acid smell extreme and cause irritation (10 ppb) | B: number of panels, acid taste/acid smell slightly strong and slightly cause irritation (10 ppb) | Flavor judgment: number of panels who judged acid taste/acid smell quality the highest (10 ppb) | A: number of panels, acid taste/acid smell extreme and cause irritation (20 ppt) | B: number of panels, acid taste/acid smell slightly strong and slightly cause irritation (20 ppt) | X: number of panels, acid taste reduced but piercing odor characteristic to aldehydes unpleasant (20 ppt) | A: number of panels, acid taste/acid smell extreme and cause irritation (50 ppb) | B: number of panels, acid taste/acid smell slightly strong and slightly cause irritation (50 ppb) | C: number of panels, acid taste/acid smell slightly unpleasant (50 ppb) | Flavor judgment: number of panels who judged acid taste/acid smell quality the highest (50 ppb) | A: number of panels, acid taste/acid smell extreme and cause irritation (100 ppt) | X: number of panels, acid taste reduced but piercing odor characteristic to aldehydes unpleasant (100 ppt) | A: number of panels, acid taste/acid smell extreme and cause irritation (500 ppt) | Flavor judgment: number of panels who judged acid taste/acid smell quality the highest (500 ppt)
1: C: number of panels, acid taste/acid smell slightly unpleasant (0.5 ppt) | N: number of panels, irritation of acid reduced to give a mild acid taste (1 ppt) | B: number of panels, acid taste/acid smell slightly strong and slightly cause irritation (5 ppt) | B: number of panels, acid taste/acid smell slightly strong and slightly cause irritation (100 ppt) | B: number of panels, acid taste/acid smell slightly strong and slightly cause irritation (500 ppt)
7: N: number of panels, irritation of acid reduced to give a mild acid taste (100 ppt)
8: A: number of panels, acid taste/acid smell extreme and cause irritation (0.2 ppt) | N: number of panels, irritation of acid reduced to give a mild acid taste (20 ppt) | X: number of panels, acid taste reduced but piercing odor characteristic to aldehydes unpleasant (50 ppb)
6: A: number of panels, acid taste/acid smell extreme and cause irritation (0.5 ppt) | N: number of panels, irritation of acid reduced to give a mild acid taste (5 ppt)
2: B: number of panels, acid taste/acid smell slightly strong and slightly cause irritation (0.2 ppt) | C: number of panels, acid taste/acid smell slightly unpleasant (1 ppb) | C: number of panels, acid taste/acid smell slightly unpleasant (10 ppb) | C: number of panels, acid taste/acid smell slightly unpleasant (20 ppt) | N: number of panels, irritation of acid reduced to give a mild acid taste (50 ppb) | C: number of panels, acid taste/acid smell slightly unpleasant (100 ppt) | X: number of panels, acid taste reduced but piercing odor characteristic to aldehydes unpleasant (500 ppt)
10: A: number of panels, acid taste/acid smell extreme and cause irritation (0.005 ppt) | A: number of panels, acid taste/acid smell extreme and cause irritation (0.02 ppt) | A: number of panels, acid taste/acid smell extreme and cause irritation (0.1 ppt)
5: C: number of panels, acid taste/acid smell slightly unpleasant (1 ppt)
4: N: number of panels, irritation of acid reduced to give a mild acid taste (1 ppb) | X: number of panels, acid taste reduced but piercing odor characteristic to aldehydes unpleasant (1 ppb) | B: number of panels, acid taste/acid smell slightly strong and slightly cause irritation (1 ppt) | Flavor judgment: number of panels who judged acid taste/acid smell quality the highest (5 ppt) | N: number of panels, irritation of acid reduced to give a mild acid taste (10 ppb) | X: number of panels, acid taste reduced but piercing odor characteristic to aldehydes unpleasant (10 ppb) | N: number of panels, irritation of acid reduced to give a mild acid taste (500 ppt)
